Test results taken from the NIST ThermoML archive (doi:10.1021/acs.jced.5b00813).
± gives the expanded uncertainty stated by the source.

Legend:
[1] = 298.15 K; 100 kPa; Liquid; Vibrating tube method
[2] = refractive index (Na D-line) (dimensionless); conditions: 298.15 K; 101.33 kPa; Liquid; Standard Abbe refractometry
[3] = xn = mol fraction of the nth substance listed; conditions: 298.15 K, 100 kPa, Liquid, Vibrating tube method
[4] = excess molar enthalpy (molar enthalpy of mixing); xn = mol fraction of the nth substance listed; conditions: 298.15 K, 100 kPa, Liquid, Calvet calorimetry

With `CC(C)CC(C)(C)C` [2,2,4-trimethylpentane] the mass density [1] was 687.75 ± 1 kg/m3 and the refractive index [2] was 1.389 ± 0.0005.

Work on `CC(C)CC(C)(C)C` [2,2,4-trimethylpentane] + CCCC(=O)OC yielded a mass density ([3]; x1 = 1) of 687.75 ± 1 kg/m3.

Molecule `CC(C)CC(C)(C)C` [2,2,4-trimethylpentane] + CCCCC(=O)OC has a mass density ([3]; x1 = 1) of 687.75 ± 1 kg/m3.

Work on `CC(C)CC(C)(C)C` [2,2,4-trimethylpentane] + COC(C)=O yielded a mass density ([3]; x1 = 1) of 687.75 ± 1 kg/m3.

In the case of `CCCC(=O)OC` [methyl butanoate], the mass density [1] is reported as 892.34 ± 1 kg/m3 and the refractive index [2] is reported as 1.3845 ± 0.0005.

In the case of `CCCC(=O)OC` [methyl butanoate] + CC(C)CC(C)(C)C, the excess molar enthalpy ([4]; x2 = 0.0389) is reported as 0.0385 ± 0.000956 kcal/mol, the excess molar enthalpy ([4]; x2 = 0.0858) is reported as 0.0793 ± 0.00167 kcal/mol and the excess molar enthalpy ([4]; x2 = 0.1367) is reported as 0.119 ± 0.00263 kcal/mol. It also gave an excess molar enthalpy ([4]; x2 = 0.1916) of 0.156 ± 0.00335 kcal/mol, an excess molar enthalpy ([4]; x2 = 0.2446) of 0.186 ± 0.00406 kcal/mol and an excess molar enthalpy ([4]; x2 = 0.2982) of 0.211 ± 0.00454 kcal/mol. For the same molecule, the excess molar enthalpy ([4]; x2 = 0.3481) was 0.23 ± 0.00502 kcal/mol, the excess molar enthalpy ([4]; x2 = 0.3959) was 0.243 ± 0.00526 kcal/mol and the excess molar enthalpy ([4]; x2 = 0.4256) was 0.251 ± 0.0055 kcal/mol. The excess molar enthalpy ([4]; x2 = 0.4407) was 0.252 ± 0.0055 kcal/mol, the excess molar enthalpy ([4]; x2 = 0.4767) was 0.254 ± 0.0055 kcal/mol and the excess molar enthalpy ([4]; x2 = 0.5375) was 0.255 ± 0.0055 kcal/mol. The excess molar enthalpy ([4]; x2 = 0.6052) was 0.246 ± 0.00526 kcal/mol, the excess molar enthalpy ([4]; x2 = 0.6813) was 0.225 ± 0.00478 kcal/mol and the excess molar enthalpy ([4]; x2 = 0.7629) was 0.189 ± 0.00406 kcal/mol. It also gave an excess molar enthalpy ([4]; x2 = 0.8494) of 0.135 ± 0.00287 kcal/mol, an excess molar enthalpy ([4]; x2 = 0.9353) of 0.0722 ± 0.00167 kcal/mol and a mass density ([3]; x2 = 0) of 892.34 ± 1 kg/m3. For the same molecule, the mass density ([3]; x2 = 0.0344) was 881.71 ± 1 kg/m3, the mass density ([3]; x2 = 0.0633) was 873.2 ± 1 kg/m3 and the mass density ([3]; x2 = 0.1096) was 860.1 ± 1 kg/m3. For the same molecule, the mass density ([3]; x2 = 0.1334) was 853.55 ± 1 kg/m3, the mass density ([3]; x2 = 0.1539) was 848 ± 1 kg/m3 and the mass density ([3]; x2 = 0.2013) was 835.7 ± 1 kg/m3. For the same molecule, the mass density ([3]; x2 = 0.2471) was 824.1 ± 1 kg/m3, the mass density ([3]; x2 = 0.2981) was 811.9 ± 1 kg/m3 and the mass density ([3]; x2 = 0.3973) was 789.58 ± 1 kg/m3. It also gave a mass density ([3]; x2 = 0.441) of 780.3 ± 1 kg/m3, a mass density ([3]; x2 = 0.5431) of 760 ± 1 kg/m3 and a mass density ([3]; x2 = 0.5901) of 751.22 ± 1 kg/m3. The mass density ([3]; x2 = 0.6801) was 735.3 ± 1 kg/m3, the mass density ([3]; x2 = 0.7243) was 727.9 ± 1 kg/m3 and the mass density ([3]; x2 = 0.8239) was 712.2 ± 1 kg/m3. It also gave a mass density ([3]; x2 = 0.8708) of 705.2 ± 1 kg/m3, a mass density ([3]; x2 = 0.8863) of 703.02 ± 1 kg/m3 and a mass density ([3]; x2 = 0.9158) of 698.8 ± 1 kg/m3. It also gave a mass density ([3]; x2 = 0.9816) of 689.84 ± 1 kg/m3.

Molecule `CCCC(=O)OC` [methyl butanoate] + CCCCCCCC has an excess molar enthalpy ([4]; x2 = 0.0438) of 0.0509 ± 0.0012 kcal/mol, an excess molar enthalpy ([4]; x2 = 0.0922) of 0.0987 ± 0.00215 kcal/mol and an excess molar enthalpy ([4]; x2 = 0.144) of 0.144 ± 0.00311 kcal/mol. It also gave an excess molar enthalpy ([4]; x2 = 0.1978) of 0.184 ± 0.00406 kcal/mol, an excess molar enthalpy ([4]; x2 = 0.2521) of 0.218 ± 0.00478 kcal/mol and an excess molar enthalpy ([4]; x2 = 0.3043) of 0.244 ± 0.00526 kcal/mol. It also gave an excess molar enthalpy ([4]; x2 = 0.3543) of 0.264 ± 0.00574 kcal/mol, an excess molar enthalpy ([4]; x2 = 0.403) of 0.278 ± 0.00598 kcal/mol and an excess molar enthalpy ([4]; x2 = 0.4321) of 0.286 ± 0.00621 kcal/mol. The excess molar enthalpy ([4]; x2 = 0.4779) was 0.291 ± 0.00621 kcal/mol, the excess molar enthalpy ([4]; x2 = 0.5368) was 0.288 ± 0.00621 kcal/mol and the excess molar enthalpy ([4]; x2 = 0.6033) was 0.276 ± 0.00598 kcal/mol. The excess molar enthalpy ([4]; x2 = 0.676) was 0.251 ± 0.0055 kcal/mol, the excess molar enthalpy ([4]; x2 = 0.757) was 0.21 ± 0.00454 kcal/mol and the excess molar enthalpy ([4]; x2 = 0.8413) was 0.153 ± 0.00335 kcal/mol. For the same molecule, the excess molar enthalpy ([4]; x2 = 0.9231) was 0.0865 ± 0.00191 kcal/mol, the mass density ([3]; x2 = 0) was 892.34 ± 1 kg/m3 and the mass density ([3]; x2 = 0.059) was 875.04 ± 1 kg/m3. It also gave a mass density ([3]; x2 = 0.1109) of 860.65 ± 1 kg/m3, a mass density ([3]; x2 = 0.152) of 849.82 ± 1 kg/m3 and a mass density ([3]; x2 = 0.2051) of 836.56 ± 1 kg/m3. The mass density ([3]; x2 = 0.2557) was 824.52 ± 1 kg/m3, the mass density ([3]; x2 = 0.2992) was 814.89 ± 1 kg/m3 and the mass density ([3]; x2 = 0.3501) was 803.53 ± 1 kg/m3. For the same molecule, the mass density ([3]; x2 = 0.4045) was 792.24 ± 1 kg/m3, the mass density ([3]; x2 = 0.4516) was 782.9 ± 1 kg/m3 and the mass density ([3]; x2 = 0.4978) was 774.12 ± 1 kg/m3. For the same molecule, the mass density ([3]; x2 = 0.5469) was 765.18 ± 1 kg/m3, the mass density ([3]; x2 = 0.5862) was 758.27 ± 1 kg/m3 and the mass density ([3]; x2 = 0.6551) was 746.75 ± 1 kg/m3. It also gave a mass density ([3]; x2 = 0.6989) of 739.74 ± 1 kg/m3, a mass density ([3]; x2 = 0.7471) of 732.42 ± 1 kg/m3 and a mass density ([3]; x2 = 0.7931) of 725.7 ± 1 kg/m3. The mass density ([3]; x2 = 0.8428) was 718.65 ± 1 kg/m3, the mass density ([3]; x2 = 0.9009) was 710.74 ± 1 kg/m3 and the mass density ([3]; x2 = 0.9367) was 706.37 ± 1 kg/m3. The mass density ([3]; x2 = 0.9651) was 702.84 ± 1 kg/m3 and the mass density ([3]; x2 = 0.9655) was 702.79 ± 1 kg/m3.
